Reference: ChEMBL document CHEMBL3046516, “Efficacy of neem limonoids on Cnaphalocrocis medinalis (Guenee) (Lepidoptera: Pyralidae) the rice leaffolder” (2005)

Key:
[1] = system: Cnaphalocrocis medinalis; test: Antifeedant activity against 4 hr starved fifth-instar larval stage of Cnaphalocrocis medinalis infested compound-treated rice leaves assessed as reduction in diet consumption after 12 hr by leaf cut-choice assay; format: functional, organism-based
[2] = system: Cnaphalocrocis medinalis; test: Antifeedant activity against 4 hr starved fifth-instar larval stage of Cnaphalocrocis medinalis infested compound-treated rice leaves assessed as feeding deterrence index at 2 ppm after 12 hr by leaf cut-choice assay (reference value: 0.05 +/- 0.003%); format: functional
[3] = system: Cnaphalocrocis medinalis; test: Antifeedant activity against 4 hr starved fifth-instar larval stage of Cnaphalocrocis medinalis infested compound-treated rice leaves assessed as consumption index at 1 ppm measured every 24 hr for 4 days by gravimetric method (reference value: 2.52 +/- 0.15 mg/mg/day); format: functional
[4] = system: Cnaphalocrocis medinalis; test: Antifeedant activity against 4 hr starved fifth-instar larval stage of Cnaphalocrocis medinalis infested compound-treated rice leaves assessed as efficacy of conversion of ingested food at 1 ppm measured every 24 hr for 4 days by gravimetric method (reference value: 20.81 +/- 1.58%); format: functional
[5] = system: Cnaphalocrocis medinalis; test: Antifeedant activity against 4 hr starved fifth-instar larval stage of Cnaphalocrocis medinalis infested compound-treated rice leaves assessed as relative consumption rate at 1 ppm measured every 24 hr for 4 days by gravimetric method (reference value: 0.524 +/- 0.03 mg/mg/day); format: functional
[6] = system: Cnaphalocrocis medinalis; test: Antifeedant activity against 4 hr starved fifth-instar larval stage of Cnaphalocrocis medinalis infested compound-treated rice leaves assessed as relative growth rate at 1 ppm measured every 24 hr for 4 days by gravimetric method (reference value: 0.524 +/- 0.03 mg/mg/day); format: functional
[7] = system: Cnaphalocrocis medinalis; test: Antifeedant activity against 4 hr starved fifth-instar larval stage of Cnaphalocrocis medinalis infested compound-treated rice leaves assessed as approximate digestibility at 1 ppm measured every 24 hr for 4 days by gravimetric method (reference value: 44.81 +/- 4.12%); format: functional
[8] = system: Cnaphalocrocis medinalis; test: Antifeedant activity against 4 hr starved fifth-instar larval stage of Cnaphalocrocis medinalis infested compound-treated rice leaves assessed as efficacy of conversion of digested food at 1 ppm measured every 24 hr for 4 days by gravimetric method (reference value: 46.45 +/- 4.12%); format: functional

| SMILES | Activity [1] | FDI [2] | Activity [3] | ECI [4] | Activity [5] | Activity [6] | Activity [7] | Activity [8] |
| --- | --- | --- | --- | --- | --- | --- | --- | --- |
| C/C=C(/C)C(=O)O[C@H]1C[C@@H](OC(C)=O)[C@@]2(C)CO[C@H]3[C@H]4O[C@@H]5C[C@@H](c6ccoc6)C(C)=C5[C@@]4(C)[C@H](CC(=O)OC)[C@]1(C)[C@@H]32 [SALANNIN] | Dose-dependent effect | 49.6% | 1.557 mg/mg/day | 16.627% | 0.557 mg/mg/day | 0.2577 mg/mg/day | 49.617% | 33.527% |
| CC(=O)O[C@@H]1C[C@H]2C(C)(C)C(=O)C=C[C@]2(C)[C@H]2CC[C@@]3(C)[C@H](c4ccoc4)OC(=O)[C@H]4O[C@]43[C@@]21C [GEDUNIN] | Dose-dependent effect | 18.8% | 2.357 mg/mg/day | 20.07% | 1.007 mg/mg/day | 0.4707 mg/mg/day | 46.457% | 43.157% |
| CC(=O)O[C@@H]1C[C@H]2C(C)(C)C(=O)C=C[C@]2(C)[C@H]2CC[C@]3(C)C(=CC(=O)[C@@]3(O)c3ccoc3)[C@@]21C [17-HYDROXYAZADIRADIONE] | Dose-dependent effect | 23.6% | 2.307 mg/mg/day | 18.247% | 0.957 mg/mg/day | 0.4197 mg/mg/day | 47.217% | 38.657% |
| COC(=O)C[C@H]1[C@]2(C)C3=C(C)[C@H](c4ccoc4)C[C@H]3O[C@@H]2[C@H](O)[C@@H]2[C@]1(C)C(=O)C=C[C@@]2(C)C(=O)OC [DEACETYLNIMBIN] | Dose-dependent effect | 21% | 2.327 mg/mg/day | 18.287% | 0.957 mg/mg/day | 0.4247 mg/mg/day | 46.747% | 39.117% |
| CC1(C)C(=O)C=C[C@]2(C)[C@H]3CC[C@@]4(C)[C@H](c5ccoc5)OC(=O)[C@H]5O[C@]54[C@]3(C)[C@H](O)C[C@@H]12 [DEACETYLGEDUNIN] | Dose-dependent effect | 23.6% | 2.207 mg/mg/day | 17.507% | 0.927 mg/mg/day | 0.3857 mg/mg/day | 48.457% | 36.127% |
| C/C=C(\C)C(=O)O[C@H]1C[C@@H](OC(C)=O)[C@@]2(C(=O)OC)CO[C@H]3[C@@H](O)[C@@](C)([C@]45O[C@@]4(C)[C@@H]4C[C@H]5O[C@@H]5OC=C[C@@]54O)[C@H]4[C@]1(CO[C@]4(O)C(=O)OC)[C@@H]32 [AZADIRACHTIN A] | Dose-dependent effect | 93.2% | 0.427 mg/mg/day | 6.507% | 0.187 mg/mg/day | 0.0277 mg/mg/day | 52.717% | 12.357% |
